Reference: ChEMBL document CHEMBL1208761, “Smoothened antagonists for hair inhibition” (Bioorg Med Chem Lett, 2010)
≈ marks a conversion by molar mass, not a printed value. Where “and” joins values, the source holds several entries; their conditions need not be identical. Equal entries are not always repeated. Calls of active or inactive are those of the source. No cut-off for these calls is given here.

What was measured:
Protein smoothened [1] = target: T1, Protein smoothened (Homo sapiens, UniProt Q99835); experiment: Inhibition of Smoothened transfected in HEK293 cells by transient transfection cell-based assay
T1 sequence (Q99835 whole entry): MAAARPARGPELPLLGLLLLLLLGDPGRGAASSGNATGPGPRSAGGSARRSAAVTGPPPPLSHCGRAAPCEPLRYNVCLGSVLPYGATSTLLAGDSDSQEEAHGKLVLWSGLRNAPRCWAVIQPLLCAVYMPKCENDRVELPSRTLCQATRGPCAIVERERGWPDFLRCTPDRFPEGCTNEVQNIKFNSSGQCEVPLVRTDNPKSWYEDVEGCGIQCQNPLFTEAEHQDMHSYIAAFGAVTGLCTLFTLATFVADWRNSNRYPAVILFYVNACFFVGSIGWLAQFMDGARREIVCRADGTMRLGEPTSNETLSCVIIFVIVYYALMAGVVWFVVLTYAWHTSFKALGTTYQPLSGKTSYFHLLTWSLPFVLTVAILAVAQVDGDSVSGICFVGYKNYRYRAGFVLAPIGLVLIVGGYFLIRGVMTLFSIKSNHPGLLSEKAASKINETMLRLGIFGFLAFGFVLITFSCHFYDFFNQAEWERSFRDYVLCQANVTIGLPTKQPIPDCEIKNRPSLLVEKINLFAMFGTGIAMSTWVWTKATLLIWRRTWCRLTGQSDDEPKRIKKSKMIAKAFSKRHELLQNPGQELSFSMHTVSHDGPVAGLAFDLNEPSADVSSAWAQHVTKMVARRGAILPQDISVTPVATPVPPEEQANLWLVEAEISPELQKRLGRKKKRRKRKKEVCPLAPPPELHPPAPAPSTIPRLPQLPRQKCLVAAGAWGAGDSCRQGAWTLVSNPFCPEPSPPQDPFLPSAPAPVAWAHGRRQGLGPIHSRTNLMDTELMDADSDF

Protein smoothened [2] = target: T1, Protein smoothened; experiment: Inhibition of Smoothened transfected in HEK293 cells by binding assay; type: cell-based
[3] = Inhibition of CYP450; type: ADME
[4] = target: Voltage-gated inwardly rectifying potassium channel KCNH2 (Homo sapiens, UniProt Q12809); experiment: Binding affinity to human ERG
Sequence of Voltage-gated inwardly rectifying potassium channel KCNH2 (Q12809 whole entry): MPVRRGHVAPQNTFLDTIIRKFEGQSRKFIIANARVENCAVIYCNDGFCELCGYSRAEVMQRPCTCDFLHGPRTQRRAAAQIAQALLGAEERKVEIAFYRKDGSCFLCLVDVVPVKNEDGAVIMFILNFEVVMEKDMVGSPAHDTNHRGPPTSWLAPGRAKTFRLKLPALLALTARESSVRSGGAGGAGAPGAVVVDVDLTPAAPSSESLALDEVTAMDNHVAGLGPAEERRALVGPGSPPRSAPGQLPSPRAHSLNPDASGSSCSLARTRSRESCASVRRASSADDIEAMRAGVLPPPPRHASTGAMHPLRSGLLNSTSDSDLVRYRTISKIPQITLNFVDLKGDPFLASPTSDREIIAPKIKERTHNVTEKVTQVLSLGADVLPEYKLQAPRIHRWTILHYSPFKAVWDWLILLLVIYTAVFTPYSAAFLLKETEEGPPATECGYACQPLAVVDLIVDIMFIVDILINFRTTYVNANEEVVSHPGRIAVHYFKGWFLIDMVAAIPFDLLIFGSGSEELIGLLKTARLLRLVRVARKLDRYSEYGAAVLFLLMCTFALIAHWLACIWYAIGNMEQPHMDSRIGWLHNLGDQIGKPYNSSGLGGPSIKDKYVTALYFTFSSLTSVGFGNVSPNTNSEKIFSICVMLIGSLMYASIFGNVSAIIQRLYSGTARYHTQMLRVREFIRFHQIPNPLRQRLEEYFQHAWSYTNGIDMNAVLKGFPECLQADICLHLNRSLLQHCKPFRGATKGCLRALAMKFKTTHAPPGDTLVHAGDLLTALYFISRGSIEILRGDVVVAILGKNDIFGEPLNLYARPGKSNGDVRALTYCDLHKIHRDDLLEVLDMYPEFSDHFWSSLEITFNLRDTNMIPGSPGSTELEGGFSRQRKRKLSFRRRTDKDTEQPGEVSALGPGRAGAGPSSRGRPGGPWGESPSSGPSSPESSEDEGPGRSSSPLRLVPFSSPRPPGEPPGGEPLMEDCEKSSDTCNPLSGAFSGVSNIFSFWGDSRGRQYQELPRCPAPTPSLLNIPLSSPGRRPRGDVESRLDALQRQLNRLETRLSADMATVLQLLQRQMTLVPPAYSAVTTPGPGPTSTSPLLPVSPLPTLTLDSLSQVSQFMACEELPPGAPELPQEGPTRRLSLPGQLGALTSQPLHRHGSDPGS

[5] = Metabolic stability in human liver microsomes assessed as half life; type: ADME, Microsome
[6] = Apparent permeability from apical to basolateral side of cell membrane at 10 uM; type: ADME; details: not told
[7] = target: T2, 5-hydroxytryptamine receptor 1A (Homo sapiens, UniProt P08908); experiment: Binding affinity to 5HT1A receptor
T2 sequence (P08908 whole entry): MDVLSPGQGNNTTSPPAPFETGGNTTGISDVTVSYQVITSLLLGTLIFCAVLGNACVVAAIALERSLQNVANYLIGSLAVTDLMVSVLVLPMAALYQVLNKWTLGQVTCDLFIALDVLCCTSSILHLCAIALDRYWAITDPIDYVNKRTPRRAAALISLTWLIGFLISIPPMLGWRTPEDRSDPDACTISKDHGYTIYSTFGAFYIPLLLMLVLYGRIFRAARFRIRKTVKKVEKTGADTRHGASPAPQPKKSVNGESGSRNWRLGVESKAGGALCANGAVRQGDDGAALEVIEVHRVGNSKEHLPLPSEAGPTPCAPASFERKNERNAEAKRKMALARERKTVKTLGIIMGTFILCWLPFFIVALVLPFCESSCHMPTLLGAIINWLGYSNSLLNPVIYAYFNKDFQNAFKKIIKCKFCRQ

[8] = target: T3, Alpha-1A adrenergic receptor (Homo sapiens, UniProt P35348); experiment: Binding affinity to adrenergic Alpha-1A receptor
T3 sequence (P35348 whole entry): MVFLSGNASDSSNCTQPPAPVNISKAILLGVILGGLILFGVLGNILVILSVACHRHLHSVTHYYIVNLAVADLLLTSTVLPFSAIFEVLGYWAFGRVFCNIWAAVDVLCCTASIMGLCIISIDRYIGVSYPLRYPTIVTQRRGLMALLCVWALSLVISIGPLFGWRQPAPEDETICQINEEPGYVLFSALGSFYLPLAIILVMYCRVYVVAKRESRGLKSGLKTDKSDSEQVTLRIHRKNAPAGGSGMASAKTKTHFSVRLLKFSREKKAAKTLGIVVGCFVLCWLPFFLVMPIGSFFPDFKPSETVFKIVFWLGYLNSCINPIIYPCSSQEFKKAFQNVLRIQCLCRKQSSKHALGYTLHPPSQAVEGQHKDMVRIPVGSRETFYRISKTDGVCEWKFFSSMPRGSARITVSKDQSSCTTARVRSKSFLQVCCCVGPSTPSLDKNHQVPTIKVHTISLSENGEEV

hERG (KCNH2) = hERG (KCNH2) (Homo sapiens, UniProt Q12809); experiment: Inhibition of human ERG at 3 uM
[9] = Solubility of the compound; type: physicochemical
Mus musculus = species: Mus musculus; experiment: Inhibition of hair growth in C3H/HeN mouse model assessed as inhibition of hair growth after 14 days; type: functional
[10] = target: 5-hydroxytryptamine receptor 2A (Homo sapiens, UniProt P28223); experiment: Binding affinity to 5HT2A receptor
Sequence of 5-hydroxytryptamine receptor 2A (P28223 whole entry): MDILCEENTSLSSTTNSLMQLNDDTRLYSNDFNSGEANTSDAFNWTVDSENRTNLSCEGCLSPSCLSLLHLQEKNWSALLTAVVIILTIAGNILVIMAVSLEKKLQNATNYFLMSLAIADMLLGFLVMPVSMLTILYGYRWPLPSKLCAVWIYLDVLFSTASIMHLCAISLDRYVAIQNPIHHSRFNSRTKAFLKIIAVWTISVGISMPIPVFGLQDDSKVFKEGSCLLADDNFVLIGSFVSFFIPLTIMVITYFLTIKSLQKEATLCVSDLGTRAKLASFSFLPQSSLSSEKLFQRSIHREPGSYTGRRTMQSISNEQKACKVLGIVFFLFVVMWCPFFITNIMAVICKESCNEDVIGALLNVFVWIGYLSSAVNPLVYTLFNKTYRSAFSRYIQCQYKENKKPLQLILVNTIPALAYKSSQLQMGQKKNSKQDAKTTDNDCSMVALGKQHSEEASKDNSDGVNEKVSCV

[11] = target: T4, Alpha-1B adrenergic receptor (Homo sapiens, UniProt P35368); experiment: Binding affinity to adrenergic alpha-1b receptor
T4 sequence (P35368 whole entry): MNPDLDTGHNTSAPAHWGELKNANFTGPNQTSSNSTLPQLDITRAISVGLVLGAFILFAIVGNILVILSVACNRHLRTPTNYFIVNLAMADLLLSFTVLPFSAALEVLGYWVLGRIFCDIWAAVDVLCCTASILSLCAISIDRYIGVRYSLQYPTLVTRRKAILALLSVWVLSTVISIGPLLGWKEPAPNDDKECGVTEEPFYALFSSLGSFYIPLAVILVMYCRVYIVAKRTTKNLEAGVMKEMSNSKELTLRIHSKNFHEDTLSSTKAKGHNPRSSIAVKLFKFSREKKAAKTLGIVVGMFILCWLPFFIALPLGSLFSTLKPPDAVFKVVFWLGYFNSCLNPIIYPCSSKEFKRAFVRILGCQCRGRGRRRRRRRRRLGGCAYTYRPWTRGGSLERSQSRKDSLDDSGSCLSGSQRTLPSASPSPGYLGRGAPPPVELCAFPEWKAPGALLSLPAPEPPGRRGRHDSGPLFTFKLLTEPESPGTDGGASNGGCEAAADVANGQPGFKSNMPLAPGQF

D(4) dopamine receptor = target: T5, D(4) dopamine receptor (Homo sapiens, UniProt P21917); experiment: Binding affinity to dopamine D4 receptor
T5 sequence (P21917 whole entry): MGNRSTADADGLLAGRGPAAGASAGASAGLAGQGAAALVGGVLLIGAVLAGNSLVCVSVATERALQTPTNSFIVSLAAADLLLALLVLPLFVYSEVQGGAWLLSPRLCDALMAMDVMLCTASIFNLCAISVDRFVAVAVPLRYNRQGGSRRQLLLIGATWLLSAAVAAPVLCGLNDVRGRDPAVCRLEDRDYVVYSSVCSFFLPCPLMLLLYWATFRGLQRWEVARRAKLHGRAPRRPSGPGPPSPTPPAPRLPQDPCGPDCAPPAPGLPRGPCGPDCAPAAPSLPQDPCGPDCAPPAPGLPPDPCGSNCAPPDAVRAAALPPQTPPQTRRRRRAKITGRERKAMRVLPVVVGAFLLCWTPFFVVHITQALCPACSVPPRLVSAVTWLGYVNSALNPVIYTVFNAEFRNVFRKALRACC

[12] = Metabolic stability in rat liver microsomes assessed as half life; type: ADME, Microsome
Zone of skin = experiment: Permeability of the compound in human skin assessed as skin penetration relative to isobutylmethylxanthine; type: ADME, tissue-based
[13] = target: Beta-1 adrenergic receptor (Homo sapiens, UniProt P08588); experiment: Binding affinity to beta-1 adrenergic receptor
Sequence of Beta-1 adrenergic receptor (P08588 whole entry): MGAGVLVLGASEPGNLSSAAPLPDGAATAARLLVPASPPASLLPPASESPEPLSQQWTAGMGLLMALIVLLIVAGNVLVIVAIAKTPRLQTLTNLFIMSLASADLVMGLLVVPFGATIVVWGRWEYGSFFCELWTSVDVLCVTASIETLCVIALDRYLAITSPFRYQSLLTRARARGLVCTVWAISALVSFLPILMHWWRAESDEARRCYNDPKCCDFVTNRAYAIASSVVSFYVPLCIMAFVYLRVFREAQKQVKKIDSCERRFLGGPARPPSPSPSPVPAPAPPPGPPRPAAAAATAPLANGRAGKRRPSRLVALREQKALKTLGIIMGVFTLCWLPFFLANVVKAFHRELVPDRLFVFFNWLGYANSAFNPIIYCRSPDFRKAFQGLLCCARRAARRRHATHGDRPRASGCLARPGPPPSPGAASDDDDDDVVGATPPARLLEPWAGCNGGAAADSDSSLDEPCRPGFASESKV

[14] = target: 5-hydroxytryptamine receptor 2B (Homo sapiens, UniProt P41595); experiment: Binding affinity to 5HT2B receptor
Sequence of 5-hydroxytryptamine receptor 2B (P41595 whole entry): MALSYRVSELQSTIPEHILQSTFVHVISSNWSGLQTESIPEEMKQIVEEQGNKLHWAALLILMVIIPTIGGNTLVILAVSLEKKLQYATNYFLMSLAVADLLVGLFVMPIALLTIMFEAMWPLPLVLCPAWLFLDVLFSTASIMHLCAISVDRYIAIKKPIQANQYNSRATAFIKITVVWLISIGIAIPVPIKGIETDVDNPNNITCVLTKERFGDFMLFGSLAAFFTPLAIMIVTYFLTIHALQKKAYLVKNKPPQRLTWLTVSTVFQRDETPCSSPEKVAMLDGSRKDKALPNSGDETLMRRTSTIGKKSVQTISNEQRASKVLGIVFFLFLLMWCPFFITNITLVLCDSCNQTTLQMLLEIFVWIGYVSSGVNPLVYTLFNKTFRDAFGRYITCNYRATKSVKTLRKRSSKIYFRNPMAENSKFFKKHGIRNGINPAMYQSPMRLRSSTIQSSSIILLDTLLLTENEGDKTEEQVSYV

[15] = target: 5-hydroxytryptamine receptor 7 (Homo sapiens, UniProt P34969); experiment: Binding affinity to 5HT7 receptor
D(2) dopamine receptor = D(2) dopamine receptor (Homo sapiens, UniProt P14416); experiment: Binding affinity to dopamine D2 receptor
Sequence of D(2) dopamine receptor (P14416 whole entry): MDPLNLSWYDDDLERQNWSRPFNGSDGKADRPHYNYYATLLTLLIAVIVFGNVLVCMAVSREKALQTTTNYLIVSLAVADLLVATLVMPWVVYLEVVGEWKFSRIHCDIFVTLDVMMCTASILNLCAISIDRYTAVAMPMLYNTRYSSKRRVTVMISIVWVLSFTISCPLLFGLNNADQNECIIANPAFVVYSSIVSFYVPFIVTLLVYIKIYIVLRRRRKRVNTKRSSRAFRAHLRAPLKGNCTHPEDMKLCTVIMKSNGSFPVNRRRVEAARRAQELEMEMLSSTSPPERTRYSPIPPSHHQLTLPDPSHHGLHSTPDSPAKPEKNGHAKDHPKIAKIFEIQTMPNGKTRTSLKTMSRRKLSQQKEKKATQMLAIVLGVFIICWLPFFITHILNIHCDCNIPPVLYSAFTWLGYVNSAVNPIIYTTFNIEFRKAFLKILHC

D(1A) dopamine receptor = D(1A) dopamine receptor (Homo sapiens, UniProt P21728); experiment: Binding affinity to dopamine D1 receptor
Sequence of D(1A) dopamine receptor (P21728 whole entry): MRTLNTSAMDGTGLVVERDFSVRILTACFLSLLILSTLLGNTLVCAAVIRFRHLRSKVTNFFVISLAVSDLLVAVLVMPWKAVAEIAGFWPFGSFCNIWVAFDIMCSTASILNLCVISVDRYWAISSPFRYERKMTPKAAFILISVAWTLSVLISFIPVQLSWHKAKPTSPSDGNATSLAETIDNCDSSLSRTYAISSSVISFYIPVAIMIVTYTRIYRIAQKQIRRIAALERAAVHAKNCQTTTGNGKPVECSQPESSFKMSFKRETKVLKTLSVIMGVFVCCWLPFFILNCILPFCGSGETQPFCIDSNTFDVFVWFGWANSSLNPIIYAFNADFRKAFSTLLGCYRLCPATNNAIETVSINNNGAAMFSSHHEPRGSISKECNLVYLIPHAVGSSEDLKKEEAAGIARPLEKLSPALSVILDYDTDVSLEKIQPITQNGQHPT

[16] = target: Beta-2 adrenergic receptor (Homo sapiens, UniProt P07550); experiment: Binding affinity to beta2 adrenergic receptor
Sequence of Beta-2 adrenergic receptor (P07550 whole entry): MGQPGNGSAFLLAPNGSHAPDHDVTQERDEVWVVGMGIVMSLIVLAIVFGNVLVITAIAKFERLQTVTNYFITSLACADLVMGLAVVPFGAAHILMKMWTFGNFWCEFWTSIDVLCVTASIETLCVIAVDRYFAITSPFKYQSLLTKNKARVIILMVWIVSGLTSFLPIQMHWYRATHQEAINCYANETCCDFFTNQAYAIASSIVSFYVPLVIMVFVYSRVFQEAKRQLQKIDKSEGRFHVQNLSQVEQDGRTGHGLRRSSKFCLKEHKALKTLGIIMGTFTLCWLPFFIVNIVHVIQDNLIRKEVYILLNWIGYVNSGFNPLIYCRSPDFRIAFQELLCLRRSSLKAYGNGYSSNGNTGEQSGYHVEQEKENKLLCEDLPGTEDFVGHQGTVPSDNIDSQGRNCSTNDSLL

[17] = Binding affinity to calcium channel

SMILES	IC50 (Protein smoothened [1])	IC50 (Protein smoothened [2])	further results
COc1ccc(N2CCN(Cc3cn(-c4ccccc4)nc3C)CC2)cc1	> 5000 nM	> 5000 nM	–
Cc1nn(-c2ccccc2)c(C)c1/C=N/N1CCN(Cc2ccccc2)CC1	4.74 nM	25 nM	inhibition (INH) (Mus musculus): 3%
Cc1nn(-c2ccccc2)cc1CN1CCN(c2ccc(F)cc2)CC1	> 5000 nM	> 5000 nM	–
COc1ccc(N2CCN(Cc3c(C)nn(-c4ccc(F)cc4)c3C)CC2)cc1	1690 nM	2000 nM	–
Cc1nn(-c2ccccc2)c(Cl)c1CN1CCN(c2ccc(F)cc2)CC1	1860 nM	10 nM	–
NCCCC(N)(C(=O)O)C(F)F (configuration not stated) [EFLORNITHINE]	–	–	inhibition (INH) (Mus musculus): 13.9%
Cc1c(CN2CCN(c3ccccc3)CC2)cnn1-c1ccccc1	78.4 nM	96 nM	–
COc1cccc(N2CCN(Cc3cnn(-c4ccc(F)cc4)c3C)CC2)c1	64.7 nM	5 nM	–

Second part, led by results:

IC50 (Protein smoothened [1])	IC50 (Protein smoothened [2])	SMILES	further results
8.27 nM	124 nM	COc1cccc(F)c1OC1CN(Cc2cnn(-c3ccccc3)c2C)C1	inhibition (INH) [3]: Not Active; Ki [4]: > 1000 nM; half-life [5]: 30.2 min; Papp A→B at 10 µM [6]: 11.3 ×10⁻⁶ cm/s; Ki [7]: > 1000 nM; Ki [8]: 76 nM; inhibition at 3 µM (hERG (KCNH2)): 56%; solubility [9]: 79 µg/mL (≈ 215 µM); hair growth inhibition (active/inactive call) (Mus musculus): Active; Ki [10]: > 1000 nM; Ki [11]: > 1000 nM; Ki (D(4) dopamine receptor): 148 nM and > 1000 nM; half-life [12]: 9.7 min; Ratio (Zone of skin): 0.52
105 nM	126 nM	COc1ccc(N2CCN(Cc3cnn(-c4ccccc4)c3C)CC2)cc1	–
823 nM	20 nM	COc1cccc(N2CCN(Cc3c(C)nn(-c4ccc(F)cc4)c3C)CC2)c1	–
328 nM	333 nM	Cc1c(CN2CCN(c3cccc(C(F)(F)F)c3)CC2)cnn1-c1ccccc1	–
40.8 nM	216 nM	COc1ccc(OC)c(C2CCN(Cc3cnn(-c4ccccc4F)c3C)C2)c1 (configuration not stated)	Ki [13]: > 1000 nM; Ki [14]: 180 nM; Ki [15]: 15 nM; Ki (D(2) dopamine receptor): > 1000 nM; Ki [7]: 103 nM; Ki (D(1A) dopamine receptor): > 1000 nM; hair growth inhibition (active/inactive call) (Mus musculus): Active; Ki [10]: > 1000 nM; Ki [16]: > 1000 nM; Ki [17]: > 1000 nM
1870 nM	> 5000 nM	COc1ccccc1N1CCN(Cc2c(C)nn(-c3ccccc3)c2C)CC1	–
